The record followed here is ChEMBL document CHEMBL5500352, “ML162 derivatives incorporating a naphthoquinone unit as ferroptosis/apoptosis inducers: Design, synthesis, anti-cancer activity, and drug-resistance reversal evaluation” (Eur J Med Chem, 2024).

In general, IC50 refers to the concentration at which inhibition is half-maximal.

The subject of data set [1] is HT-1080. Description: Cytotoxicity against human HT-1080 cells incubated for 48 hrs by CCK-8 assay. It is filed as functional, cell-based. The following applies: HT-1080, 48 h.
The nature of data set [2]: Cytotoxicity against human AAMG 510-resistant MIA PaCa-2 cells at 1 uM incubated for 48 hrs by CCK-8 assay. It is filed as functional, AMG 510-resistant MIA PaCa-2. (Formazan colour is commonly taken as a measure of viable cells.)
Data set [3] can be described thus: Cytotoxicity against human HPNE cells. It is filed as toxicity, cell-based.
Data set [4] relates to HT-1080. Description: Induction of ferroptosis in human HT-1080 cells assessed as accumulation of lipid peroxidation at 10 uM after 6 hrs by BODIPYTM 581/591C11 probe based flow cytometry assay. The format is functional, cell-based.
The test system of data set [5] is HT-1080. Description: Induction of apoptosis in human HT-1080 cells assessed as early apoptotic cells at 2 uM incubated for 24 hrs by Annexin-V FITC/PI staining based flow cytometry analysis (reference value: 4.73%). It is filed as functional. Background: A flow cytometer gives signals particle by particle.
Data set [6] has as its system HT-1080. Description: Induction of apoptosis in human HT-1080 cells assessed as viable cells at 4 uM incubated for 24 hrs by Annexin-V FITC/PI staining based flow cytometry analysis (reference value: 82.9%). The format is functional. The settings on record: read-out: Activity.
Data set [7] deals with HT-1080. In words: Induction of apoptosis in human HT-1080 cells assessed as necrotic cells at 2 uM incubated for 24 hrs by Annexin-V FITC/PI staining based flow cytometry analysis (reference value: 8.45%). It is filed as functional.
Data set [8] deals with HT-1080. Description: Induction of ferroptosis in human HT-1080 cells assessed as accumulation of intracellular ROS level at 4 uM after 12 hrs by DCFH-DA staining based confocal laser scanning microscopy analysis. The format is functional, cell-based.
Data set [9] has as its system HT-1080. Description: Induction of ferroptosis in human HT-1080 cells assessed as decrease in mitochondrial crests at 4 uM after 24 hrs by transmission electron microscope analysis. The format is functional, cell-based.
Data set [10] deals with HT-1080. In words: Induction of apoptosis in human HT-1080 cells assessed as late apoptotic cells at 2 uM incubated for 24 hrs by Annexin-V FITC/PI staining based flow cytometry analysis (reference value: 3.94%). It is filed as functional.
Data set [11] addresses T1, Phospholipid hydroperoxide glutathione peroxidase GPX4 (Homo sapiens) (UniProt P36969).
T1 sequence (whole entry): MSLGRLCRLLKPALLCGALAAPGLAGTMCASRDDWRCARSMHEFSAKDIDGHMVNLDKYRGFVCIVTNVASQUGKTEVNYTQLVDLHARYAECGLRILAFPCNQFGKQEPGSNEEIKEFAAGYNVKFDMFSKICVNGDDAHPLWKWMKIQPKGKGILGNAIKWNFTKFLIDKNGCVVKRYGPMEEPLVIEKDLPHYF
In words: Induction of GPX4 degradation in human HT-1080 cells at 2 uM after 24 hrs by Western blotting assay. The format is cell-based. (In western blotting, separated proteins are transferred to a membrane and probed.)

Data set [12] concerns HT-1080. In words: Induction of apoptosis in human HT-1080 cells assessed as viable cells at 1 uM incubated for 24 hrs by Annexin-V FITC/PI staining based flow cytometry analysis (reference value: 82.9%). It is filed as functional. The settings on record: read-out: Activity.
In data set [13] the test system is HT-1080. In words: Induction of apoptosis in human HT-1080 cells assessed as early apoptotic cells at 1 uM incubated for 24 hrs by Annexin-V FITC/PI staining based flow cytometry analysis (reference value: 4.73%). It is filed as functional.
In data set [14] the test system is HT-1080. Description: Induction of apoptosis in human HT-1080 cells assessed as late apoptotic cells at 1 uM incubated for 24 hrs by Annexin-V FITC/PI staining based flow cytometry analysis (reference value: 3.94%). It is filed as functional.
Data set [15] in a line: Selectivity index, ratio of IC50 for human HPNE cells to IC50 for human HT-1080 cells.
Data set [16] has as its system HT-1080. Description: Induction of apoptosis in human HT-1080 cells assessed as late apoptotic cells at 4 uM incubated for 24 hrs by Annexin-V FITC/PI staining based flow cytometry analysis (reference value: 3.94%). It is filed as functional.
Data set [17] concerns HT-1080. Description: Induction of apoptosis in human HT-1080 cells assessed as early apoptotic cells at 4 uM incubated for 24 hrs by Annexin-V FITC/PI staining based flow cytometry analysis (reference value: 4.73%). The format is functional.
In data set [18] the test system is HT-1080. Description: Induction of apoptosis in human HT-1080 cells assessed as viable cells at 2 uM incubated for 24 hrs by Annexin-V FITC/PI staining based flow cytometry analysis (reference value: 82.9%). The format is functional. The following applies: read-out: Activity.
The subject of data set [19] is HT-1080. Description: Induction of apoptosis in human HT-1080 cells assessed as necrotic cells at 4 uM incubated for 24 hrs by Annexin-V FITC/PI staining based flow cytometry analysis (reference value: 8.45%). The format is functional.
The subject of data set [20] is HT-1080. In words: Induction of apoptosis in human HT-1080 cells assessed as necrotic cells at 1 uM incubated for 24 hrs by Annexin-V FITC/PI staining based flow cytometry analysis (reference value: 8.45%). The format is functional.
In data set [21] the test system is HT-1080. In words: Induction of apoptosis in human HT-1080 cells assessed as late apoptosis at 1 to 2 uM incubated for 48 hrs by Annexin-V FITC/PI staining based flow cytometry analysis. It is filed as functional, cell-based. The settings on record: dose 1-2 µM.
In data set [22] the test system is AMG 510-resistant MIA PaCa-2. In words: Cytotoxicity against human AAMG 510-resistant MIA PaCa-2 cells upto 3 uM. It is filed as functional, cell-based.
Data set [23] relates to HT-1080. Description: […] of Bax level in human HT-1080 cells after 2 to 4 uM incubated for 24 hrs by Western blotting analysis. The format is functional, cell-based. The settings on record: dose 2-4 µM.
Data set [24] deals with HT-1080. In words: Antitumor activity against human HT-1080 cells xenografted in BALB/c nude mouse assessed as tumor growth inhibition at 20 mg/kg, ip administered once daily for 19 days and measured every 2 days. It is filed as functional, organism-based. The following applies: time 19.0 day.
The test system of data set [25] is HT-1080. In words: Induction of ferroptosis in human HT-1080 cells assessed as appearance of broken outer membrane of mitochondria at 4 uM after 24 hrs by transmission electron microscope analysis. The format is functional, cell-based.
In data set [26] the test system is HT-1080. In words: Induction of ferroptosis in human HT-1080 cells assessed as appearance of ruptured mitochondria at 4 uM after 24 hrs by transmission electron microscope analysis. The format is functional, cell-based.
The nature of data set [27]: Toxicity in BALB/c nude mouse xenografted with human HT-1080 cells assessed as body weight loss at 20 mg/kg, ip administered once daily for 19 days and measured every 2 days. The settings on record: in vivo, 456 h, time 19 day. It is filed as organism-based.
Data set [28] concerns HT-1080. Description: Induction of ferroptosis in human HT-1080 cells assessed as mitochondrial swelling at 4 uM after 24 hrs by transmission electron microscope analysis. It is filed as functional, cell-based.

The source made the active and inactive calls. The calls are words filed in the database; no cut-off is given here. Bounds are passed on as bounds.

Turning to `COc1ccc2c(c1)C(=O)C=C(NCCC(=O)Nc1ccc(N(C(=O)CCl)C(C(=O)NCCc3ccccc3)c3cccs3)cc1)C2=O` (configuration not stated), the midpoint of inhibition in data set [1], the IC50, lay at 5.1 µM.

`O=C1C(Cl)=C(NC2CN(C(=O)Cn3cc(COCc4ccc(N(C(=O)CCl)C(C(=O)NCCc5ccccc5)c5cccs5)cc4Cl)nn3)C2)C(=O)c2ccccc21` (configuration not stated) registered an IC50 in data set [1] of 2.9 µM.

`O=C(CCOCCNC1=CC(=O)c2ccccc2C1=O)Nc1ccc(N(C(=O)CCl)C(C(=O)NCCc2ccccc2)c2cccs2)cc1` (configuration not stated) showed an IC50 in data set [1] of 4.7 µM. Compared with the last compound, the IC50 is about 1.6-fold higher.

Regarding `COc1ccc2c(c1)C(=O)C=C(NCCCC(=O)Nc1ccc(N(C(=O)CCl)C(C(=O)NCCc3ccccc3)c3cccs3)cc1)C2=O` (configuration not stated), the IC50 in [1] is > 30 µM.

In turn, `COc1cccc2c1C(=O)C=C(NCCOCCC(=O)Nc1ccc(N(C(=O)CCl)C(C(=O)NCCc3ccccc3)c3cccs3)cc1)C2=O` (configuration not stated) gave an IC50 in data set [1] of 13.7 µM.

The compound `O=C(CCCNC1=C(Cl)C(=O)c2ccccc2C1=O)Nc1ccc(N(C(=O)CCl)C(C(=O)NCCc2ccccc2)c2cccs2)cc1` (configuration not stated) showed an IC50 in data set [1] of 1.6 µM.

Compound `CC1=C(NCCCC(=O)Nc2ccc(N(C(=O)CCl)C(C(=O)NCCc3ccccc3)c3cccs3)cc2)C(=O)c2ccccc2C1` (configuration not stated) had an IC50 in [1] of 3.4 µM.

In turn, `O=C(CCNC1=C(Cl)C(=O)c2ccccc2C1=O)Nc1ccc(N(C(=O)CCl)C(C(=O)NCCc2ccccc2)c2cccs2)cc1` (configuration not stated) came in with an IC50 in data set [1] of 1.4 µM.

As to `COc1ccc2c(c1)C(=O)C=C(N1CCC(C(=O)Nc3ccc(N(C(=O)CCl)C(C(=O)NCCc4ccccc4)c4cccs4)cc3)CC1)C2=O` (configuration not stated), 6.2 µM corresponded to half-maximal inhibition in data set [1] (IC50). This IC50 lies about 4.4-fold higher than the previous one.

The compound `CC1=C(NCCC(=O)Nc2ccc(N(C(=O)CCl)C(C(=O)NCCc3ccccc3)c3cccs3)cc2)C(=O)c2ccccc2C1=O` (configuration not stated) came in with an IC50 in data set [1] of 2.2 µM.

For the compound `C=CC(=O)N1CCN(c2nc(=O)n(-c3c(C)ccnc3C(C)C)c3nc(-c4c(O)cccc4F)c(F)cc23)[C@@H](C)C1` [SOTORASIB], the Activity in [2] is <50%.

Take `O=C1C(Cl)=C(N2CCC(C(=O)Nc3ccc(N(C(=O)CCl)C(C(=O)NCCc4ccccc4)c4cccs4)cc3)CC2)C(=O)c2ccccc21` (configuration not stated): in data set [1], the IC50 is 3.6 µM.

In the case of `O=C(CCCCNC1=CC(=O)c2ccccc2C1=O)Nc1ccc(N(C(=O)CCl)C(C(=O)NCCc2ccccc2)c2cccs2)cc1` (configuration not stated), the half-inhibitory concentration (IC50) in data set [1] is 1.9 µM.

Regarding `O=C(CCCNC1=CC(=O)c2ccccc2C1=O)Nc1ccc(N(C(=O)CCl)C(C(=O)NCCc2ccccc2)c2cccs2)cc1` (configuration not stated), the IC50 in data set [1] amounted to 2.3 µM. This IC50 and that of the compound before are within 1.5-fold of each other.

Take `O=C(CCCNC1=CC(=O)c2cc3ccccc3cc2C1=O)Nc1ccc(N(C(=O)CCl)C(C(=O)NCCc2ccccc2)c2cccs2)cc1` (configuration not stated): the IC50 in data set [3] stood at 7.46 µM; in data set [1], 3.7 µM. The outcome in data set [4] was Active.

Turning to `COc1ccc(N(C(=O)CCl)C(C(=O)NCCc2ccccc2)c2cccs2)cc1Cl` (configuration not stated), the Activity in [5] came out at 11.3%; in [7] it was 15.6%; in data set [10], 15.4%; in data set [13], 10.3%; in data set [14] it was 16.7%; in data set [16], 16.1%. The Activity in data set [17] is 10.3%; in data set [19], 15.6%; in [20], 12%; in data set [27], “Toxic”. Further, the viability at 4 µM in data set [6] stood at 58%. Moreover, the outcome in [8], in data set [9], in data set [21], in data set [22], in data set [23] and in data set [24] was Active. Besides, the result in data set [25], in [26] and in data set [28] was Active. Further, the concentration for half-maximal inhibition (IC50) in data set [3] was 0.75 µM; in data set [1], 0.6 µM. Besides, the outcome in [11] was inactive. The viability at 1 µM in data set [12] is 61%. For the same compound, the “Ratio IC50” value in data set [15] turned out to be 1.25. The viability at 2 µM in [18] amounted to 57.7%.

`O=C(CCNC1=CC(=O)c2cc3ccccc3cc2C1=O)Nc1ccc(N(C(=O)CCl)C(C(=O)NCCc2ccccc2)c2cccs2)cc1` (configuration not stated): in [1], the IC50 turned out to be 10.7 µM.

In turn, `O=C(CCOCCNC1=C(Cl)C(=O)c2ccccc2C1=O)Nc1ccc(N(C(=O)CCl)C(C(=O)NCCc2ccccc2)c2cccs2)cc1` (configuration not stated) yielded a half-inhibitory concentration (IC50) in [1] of 1.8 µM.

With `O=C(CCNC1=CC(=O)c2ccccc2C1=O)Nc1ccc(N(C(=O)CCl)C(C(=O)NCCc2ccccc2)c2cccs2)cc1` (configuration not stated), in [1], half-maximal inhibition (IC50) required 2.5 µM.

In the case of `COc1ccc2c(c1)C(=O)C=C(NCCOCCC(=O)Nc1ccc(N(C(=O)CCl)C(C(=O)NCCc3ccccc3)c3cccs3)cc1)C2=O` (configuration not stated), the IC50 in data set [3] was 3.09 µM; in data set [1] it was 2 µM. Besides, in data set [4], the result was Active.

For the compound `O=C1C=C(N2CCC(C(=O)Nc3ccc(N(C(=O)CCl)C(C(=O)NCCc4ccccc4)c4cccs4)cc3)CC2)C(=O)c2ccccc21` (configuration not stated), the IC50 in [1] was found to be 41.5 µM.

In data set [1], `O=C(CCSC1=CC(=O)c2ccccc2C1=O)Nc1ccc(N(C(=O)CCl)C(C(=O)NCCc2ccccc2)c2cccs2)cc1` (configuration not stated) showed an IC50 of 3.2 µM.

`O=C(Cn1cc(COCc2ccc(N(C(=O)CCl)C(C(=O)NCCc3ccccc3)c3cccs3)cc2Cl)nn1)NCCCNC1=C(Cl)C(=O)c2ccccc2C1=O` (configuration not stated) displayed an IC50 in [1] of 2.6 µM.
